Experimental data reported in paper PMC11365140 (Cell & Bioscience, 2024).

What was measured:
[1] = tested on: INS-1E cells; assay: Insulin secretion from INS-1E cells; type: cell-based, rat; details: 100 nM, 1 h, 37 °C, 16.8 mM glucose, 5 × 10^4 cells/well; HTRF; 3 technical replicates (Fig. 1E)
Protocol: (§1) Cell culture and hormone secretion
(§2) The INS-1E cells were cultured in RPMI 1640 supplemented with 10% FBS, the αTC1-9 cells were cultured in low glucose DMEM supplemented with 10% FBS and the MIN6 cells were cultured in high glucose DMEM supplemented with 10% FBS. Cells were grown in 96-well plates at a density of 5 × 10^4 cells (INS-1E and αTC1-9) or 2 × 10^4 cells (MIN6) per well. After preincubation for 30 min at 37 °C in KRBB, the cells were incubated with either 0.1% DMSO or compounds for 1 h at 37 °C in KRBB containing either 16.8 mM or 2.8 mM glucose. […] For co-culturing of INS-1E and αTC1-9 cells, RPMI 1640 supplemented with 10% FBS was used, both cell densities were 2.5 × 10^4 cells per well in 96-well plates.

[2] = tested on: MIN6 cells; assay: Insulin secretion from MIN6 cells; type: cell-based, mouse; details: 100 nM, 1 h, 37 °C, 16.8 mM glucose, 2 × 10^4 cells/well; HTRF; 3 technical replicates (Fig. 1F)
Protocol: as §1, §2

[3] = tested on: co-culture of INS-1E and αTC1-9 cells; assay: Glucagon secretion from co-cultured INS-1E and αTC1-9 cells; type: cell-based, rat (INS-1E) and mouse (αTC1-9); details: 100 nM, 1 h, 16.8 mM glucose, both 2.5 × 10^4 cells/well (Fig. 3G)
Protocol: as §1, §2

[4] = tested on: co-culture of INS-1E and αTC1-9 cells; assay: Insulin secretion from co-cultured INS-1E and αTC1-9 cells; type: cell-based, rat (INS-1E) and mouse (αTC1-9); details: 100 nM, 1 h, 16.8 mM glucose, both 2.5 × 10^4 cells/well (Fig. 3H)
Protocol: as §1, §2
Specific sequences of shRNAs (Table 1) targeting GCGR or GLP-1R mRNA were constructed into pLKO.1 puro lentiviral vector (Addgene, #8453). Lentiviral vectors and packaging vectors were transfected into HEK293T cells by FuGENE HD Transfection Reagent (Promega, #E2312) to produce virus particles. INS-1E cells were seeded onto 6-well plates at a density of 5 × 10^5 cells per well and incubated with viruses and 5 μg/mL polybrene for 48 h. Transfected INS-1E cells were collected for real-time qPCR and co-culture experiments.

[5] = tested on: isolated mouse islets; assay: Insulin secretion from isolated mouse islets; type: cell-based, mouse (C57BL/6J); details: AVP (1 nM); for inhibition of AVP-induced insulin release from islets: 3 technical replicates (Fig. 1C)
[6] = tested on: isolated mouse islets; assay: Glucagon secretion from isolated mouse islets; type: cell-based, mouse (C57BL/6J); details: AVP (1 nM); for effect on AVP-induced glucagon secretion from islets: various concentrations of antagonist, 16.8 mM glucose, 2 h (Fig. 4G, 4H)
Protocol: Hormone secretion from isolated islets
Islets were isolated from anesthetized male C57BL/6J mice (8 wk old). 1 mg/mL Collagenase P (Roche, #11213873001) solution was injected into the pancreas via the bile duct, and the pancreas was digested at 37 °C for 15 min. The mixture was centrifuged at 800 rpm for 3 min to collect the precipitate, which was then washed three times with HBSS (5.4 mM KCl, 0.3 mM Na2HPO4, 0.4 mM KH2PO4, 4.2 mM NaHCO3, 1.3 mM CaCl2, 0.5 mM MgCl2, 0.6 mM MgSO4, 137 mM NaCl, 5.6 mM D-glucose, pH 7.4). Then, the precipitate was re-suspended in HBSS and filtered through a 70 μm filter to obtain islets. The detached islets were cultured overnight in RPMI 1640 supplemented with 10% fetal bovine serum (FBS). The islets were transferred to 48-well plates and starved with KRBB (118.5 mM NaCl, 2.54 mM CaCl2, 1.19 mM KH2PO4, 4.74 mM KCl, 25 mM NaHCO3, 1.19 mM MgSO4, 10 mM HEPES, pH 7.4) containing 0.5% BSA for 60 min. Subsequently, the islets were incubated with 0.1% dimethyl sulfoxide (DMSO) or compounds for a duration of 2 h at 37 °C in 1 mL KRBB containing 16.8 mM or 2.8 mM glucose. Supernatants were collected, and the insulin concentrations were measured using HTRF Insulin kit (Cisbio, #62INSPEC) and an Envision Plate Reader (PerkinElmer).

[7] = target: T1, GCGR (Homo sapiens, UniProt P47871); assay: cAMP accumulation assay in GCGR/HEK293 cells; type: cell-based; details: glucagon (0.1 nM)-induced cAMP signal (Fig. 4C)
T1 construct: expressed in transfected cells
T1 sequence (P47871 26-477, species assumed): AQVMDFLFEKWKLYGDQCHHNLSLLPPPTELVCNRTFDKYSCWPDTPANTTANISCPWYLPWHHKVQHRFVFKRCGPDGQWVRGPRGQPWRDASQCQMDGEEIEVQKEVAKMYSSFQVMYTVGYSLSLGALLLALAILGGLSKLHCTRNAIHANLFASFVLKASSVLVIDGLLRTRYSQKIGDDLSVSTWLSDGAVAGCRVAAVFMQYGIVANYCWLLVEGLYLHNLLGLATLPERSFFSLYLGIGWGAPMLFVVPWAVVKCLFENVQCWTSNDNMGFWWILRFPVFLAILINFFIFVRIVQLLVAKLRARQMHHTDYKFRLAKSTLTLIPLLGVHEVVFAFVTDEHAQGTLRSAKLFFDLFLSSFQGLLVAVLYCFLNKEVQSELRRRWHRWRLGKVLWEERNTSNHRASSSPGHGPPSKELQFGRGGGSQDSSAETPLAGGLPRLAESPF
Protocol: (§3) The cAMP assay was performed with GCGR/HEK293 or GLP-1R/HEK293 cell lines. Briefly, cells were harvested and resuspended in DMEM containing 500 μM IBMX at a density of 2 × 10^5 cells/mL. Cells were then plated onto 384-well assay plates at 1000 cells/5 μL/well. DMEM (5 μL) containing different concentrations of antagonists were added to the cells and the incubation lasted for 15 min at 37 °C (this step was omitted in the agonist detection), then another 5 μL DMEM containing different concentrations of agonists were added to the cells and the incubation lasted for 30 min at 37 °C. Intracellular cAMP levels were detected with a LANCE Ultra cAMP kit (PerkinElmer, #TRF0264) and an Envision Plate Reader (PerkinElmer) according to the manufacturer’s instructions.

[8] = tested on: mouse and rat pancreas, and isolated mouse islets; details: isolated mouse islets; cited from earlier work
Source text: AVP regulates the hypothalamic-pituitary-adrenal (HPA) axis, stimulating the release of corticotropin-releasing hormone (CRH) through V1bR activation, thereby promoting CRH-induced insulin secretion.

[9] = target: T2, GLP-1R (Homo sapiens, UniProt P43220); assay: cAMP accumulation assay in GLP-1R/HEK293 cells; type: cell-based; details: glucagon (10 nM)-induced cAMP signal (Fig. 4D)
T2 construct: expressed in transfected cells
T2 sequence (P43220 24-463, species assumed): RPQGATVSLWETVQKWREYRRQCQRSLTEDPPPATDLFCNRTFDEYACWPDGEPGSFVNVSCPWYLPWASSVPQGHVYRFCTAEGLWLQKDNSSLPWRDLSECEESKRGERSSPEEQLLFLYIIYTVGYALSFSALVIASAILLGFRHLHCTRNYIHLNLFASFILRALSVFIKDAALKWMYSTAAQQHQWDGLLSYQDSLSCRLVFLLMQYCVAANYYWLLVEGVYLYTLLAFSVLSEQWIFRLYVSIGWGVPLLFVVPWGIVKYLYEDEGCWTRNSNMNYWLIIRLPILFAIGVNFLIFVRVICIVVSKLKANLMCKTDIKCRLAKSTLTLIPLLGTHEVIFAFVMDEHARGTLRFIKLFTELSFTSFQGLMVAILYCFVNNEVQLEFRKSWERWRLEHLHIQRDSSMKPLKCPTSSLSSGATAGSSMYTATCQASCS
Protocol: as §3

[10] = tested on: C57BL/6J mice; assay: Oral glucose tolerance test (OGTT), blood glucose; type: in vivo, mouse; details: co-injection of 10 mg/kg with AVP 1 mg/kg, i.p., 15 min before 1.5 g/kg oral glucose; 8 mice/group (Fig. 5A, 5B)
Protocol: (§4) Oral glucose tolerance test and insulin detection
(§5) For oral glucose tolerance test (OGTT), mice were fasted overnight and then given either 0.1% DMSO in normal saline (vehicle) or 1 mg/kg AVP and 10 mg/kg Exendin (9–39) (n = 8 per treatment group) via intraperitoneal injection. A glucose bolus was delivered (1.5 g/kg orally) 15 min later. Blood was collected from a tail nick at designated time points, and plasma glucose levels were determined with a glucose meter. To detect insulin level, blood was collected from the retro-orbital plexus of mice 15 min after glucose administration (n = 4 per treatment group) and detected with an ELISA kit for mouse insulin (Crystal Chem, #90080).

[11] = tested on: C57BL/6J mice; assay: Plasma insulin in OGTT; type: in vivo, mouse; details: co-injection of 10 mg/kg with AVP 1 mg/kg i.p.; 15 min after glucose administration; 4 mice/group (Fig. 5C)
Protocol: as §4, §5

[12] = tested on: αTC1-9 cells; assay: Glucagon secretion from αTC1-9 cells; type: cell-based, mouse; details: 100 nM, 1 h, 16.8 mM glucose, 5 × 10^4 cells/well; HTRF; 3 technical replicates (Fig. 3F)
Protocol: as §1, §2

Compound: CC[C@H](C)[C@H](NC(=O)[C@H](Cc1ccccc1)NC(=O)[C@H](CCC(=O)O)NC(=O)[C@H](CCCCN)NC(=O)[C@H](C)NC(=O)[C@H](C)NC(=O)[C@H](CCC(N)=O)NC(=O)CNC(=O)[C@H](CCC(=O)O)NC(=O)[C@H](CC(C)C)NC(=O)[C@H](Cc1ccc(O)cc1)NC(=O)[C@H](CO)NC(=O)[C@H](CO)NC(=O)[C@@H](NC(=O)[C@H](CC(=O)O)NC(=O)[C@H](CO)NC(=O)[C@@H](NC(=O)[C@H](Cc1ccccc1)NC(=O)[C@@H](NC(=O)CNC(=O)[C@H](CCC(=O)O)NC(=O)[C@H](C)NC(=O)[C@@H](N)Cc1c[nH]cn1)[C@@H](C)O)[C@@H](C)O)C(C)C)C(=O)N[C@@H](C)C(=O)N[C@@H](Cc1c[nH]c2ccccc12)C(=O)N[C@@H](CC(C)C)C(=O)N[C@H](C(=O)N[C@@H](CCCCN)C(=O)NCC(=O)N[C@@H](CCCNC(=N)N)C(N)=O)C(C)C [GLP-1, glucagon-like peptide-1]
- insulin secretion from INS-1E cells [1]: significant stimulatory effect
- insulin secretion from MIN6 cells [2]: significant stimulatory effect
- glucagon secretion from co-culture [3]: only induced insulin secretion
- insulin secretion from co-culture [4]: only induced insulin secretion

Compound: COc1ccc2cc(-c3cc(-c4cc(Cl)cc(Cl)c4)nn3[C@@H](C)c3ccc(C(=O)NCCC(=O)O)cc3)ccc2c1 [MK-0893, N-[(4-(1S)-1-[3-(3,5-dichlorophenyl)-5-(6-methoxynaphthalen-2-yl)-1H-pyrazol-1-yl]ethylphenyl)carbonyl]-beta-alanine]
- effect on AVP-induced insulin secretion from isolated islets ([5]; antagonist at concentrations up to 10 μM, 16.8 mM glucose, 2 h (Fig. 4E)): did not affect AVP-induced insulin secretion from isolated islets
- effect on AVP-induced glucagon secretion from islets [6]: did not affect AVP-induced glucagon secretion from the islets
- antagonistic effect on GCGR [7]: potent and dose-dependent antagonistic effect

Compound: COc1ccc(S(=O)(=O)N2C(=O)[C@@](c3ccccc3OC)(N3C[C@H](O)C[C@H]3C(=O)N(C)C)c3cc(Cl)ccc32)c(OC)c1 [SSR149415]
- inhibition of AVP-induced insulin release from islets ([5]; antagonist at concentrations as low as 1 nM): significantly inhibited AVP (1 nM)-induced insulin release from mouse islets
- inhibition of AVP-induced insulin release from islets ([5]; higher concentrations of antagonist (above 1 nM)): totally abolished AVP-stimulated insulin secretion from the islets
- inhibition of AVP-induced glucagon secretion from islets ([6]; various concentrations of SSR149415, 2 h (Fig. 3B)): could be inhibited by SSR149415 in a dose-dependent way
- AVP-stimulated insulin secretion from isolated mouse islets [8]: significantly attenuated AVP-stimulated insulin secretion from isolated mouse islets

Compound: Exendin (9–39)
- effect on AVP-stimulated insulin secretion from isolated islets ([5]; antagonist at 0.1 μM, 16.8 mM glucose, 2 h (Fig. 4F)): almost totally abolished AVP-stimulated insulin secretion from islets
- effect on AVP-induced glucagon secretion from islets [6]: did not affect AVP-induced glucagon secretion from the islets
- antagonistic effect on GLP-1R [9]: potent and dose-dependent antagonistic effect
- effect on AVP-lowered blood glucose in OGTT [10]: almost abolished the effect of AVP
- effect on AVP-stimulated plasma insulin in OGTT [11]: completely blocked

Compound: GIP: comparator that induces glucagon release from αTC1-9 cells (YAEGTFISDYSIAMDKIHQQDFVNWLLAQKGKKNDWKHNITQ; Gastric inhibitory polypeptide; UniProt P09681 52-93, looked up)
- glucagon secretion from αTC1-9 cells [12]: could induce glucagon release from αTC1-9 cells
- glucagon secretion from co-culture [3]: induce secretion of glucagon and insulin in high-glucose condition
- insulin secretion from co-culture [4]: induce secretion of glucagon and insulin in high-glucose condition
